From patent US6479435B1, “Diaryl ethers and processes for their preparation and herbicidal and desiccant compositions containing them” (ISK Americas Incorporated, priority 1997, dated 2002)

Legend:
Type in all cases: in vivo
[1] = system: Johnsongrass (Sorghum halepense, SORHA); assay: Pre-emerge greenhouse herbicide test, phytotoxicity rating; conditions: 14 days after application, rating scale 0-100
Method in brief: (§1)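 Seeds sown in sandy loam one day before track-sprayer application of acetone solutions at 125–1000 g ai/ha (187 l/ha), then surface-watered to incorporate and bottom-watered. Injury scored visually at 14 days on a 0–100 scale (0 no damage, 100 complete death).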

[2] = system: barnyardgrass (Echinochloa crusgalli, ECHCG); assay: as above; conditions: 14 days after application, rating scale 0-100
Method in brief: as §1

[3] = system: common ragweed (Ambrosia artemisiifolia L., AMBEL); assay: as above; conditions: 14 days after application, rating scale 0-100
Method in brief: as §1

[4] = system: green foxtail (Setaria viridis, SETVI); assay: as above; conditions: 14 days after application, rating scale 0-100
Method in brief: as §1

[5] = system: ivyleaf morningglory (Ipomoea hederacea, IPOHE); assay: as above; conditions: 14 days after application, rating scale 0-100
Method in brief: as §1

[6] = system: lambsquarters (Chenopodium album, CHEAL); assay: as above; conditions: 14 days after application, rating scale 0-100
Method in brief: as §1

[7] = system: large crabgrass (Digitaria sanguinalis, DIGSA); assay: as above; conditions: 14 days after application, rating scale 0-100
Method in brief: as §1

[8] = system: redroot pigweed (Amaranthus retroflexus, AMARE); assay: as above; conditions: 14 days after application, rating scale 0-100
Method in brief: as §1

[9] = system: sicklepod (Cassia obtusifolia, CASOB); assay: as above; conditions: 14 days after application, rating scale 0-100
Method in brief: as §1

[10] = system: velvetleaf (Abutilon theophrasti, ABUTH); assay: as above; conditions: 14 days after application, rating scale 0-100
Method in brief: as §1

[11] = system: field corn (Zea mays L., var. Dekalb 535, CORN); assay: Pre-emerge greenhouse test, crop damage rating; conditions: 14 days after application, rating scale 0-100
Method in brief: as §1

[12] = system: upland rice (Oryza sp., var.Tebonnet, RICE); assay: Pre-emerge greenhouse test, crop damage rating; conditions: 14 days after application, rating scale 0-100
Method in brief: as §1

[13] = system: soybean (Glycine max L., var. Pella 86, SOY); assay: Pre-emerge greenhouse test, crop damage rating; set-up: key to SOY crop damage rating: 0 = no damage, 100 = complete death of all plants; conditions: 14 days after application, rating scale 0-100
Method in brief: as §1

[14] = system: common ragweed (Ambrosia artemisiifolia L., AMBEL); assay: Post-emerge greenhouse herbicide test, phytotoxicity rating; conditions: 14 days after application, scale 0-100
Method in brief: (§2)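 Plants at the 2-3 leaf stage, sown 8-21 days earlier, were track-sprayed post-emergence with compound in acetone plus 0.25% v/v non-ionic surfactant at 63-1000 g ai/ha (187 l/ha). Damage was rated at 14 days on a 0-100 scale (0 none, 100 all plants dead), for both crop injury and weed control.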

[15] = system: Johnsongrass (Sorghum halepense, SORHA); assay: as above; conditions: 14 days after application, scale 0-100
Method in brief: as §2

[16] = system: barnyardgrass (Echinochloa crusgalli, ECHCG); assay: as above; conditions: 14 days after application, scale 0-100
Method in brief: as §2

[17] = system: green foxtail (Setaria viridis, SETVI); assay: as above; conditions: 14 days after application, scale 0-100
Method in brief: as §2

[18] = system: ivyleaf morningglory (Ipomoea hederacea, IPOHE); assay: as above; conditions: 14 days after application, scale 0-100
Method in brief: as §2

[19] = system: lambsquarters (Chenopodium album, CHEAL); assay: as above; conditions: 14 days after application, scale 0-100
Method in brief: as §2

[20] = system: large crabgrass (Digitaria sanguinalis, DIGSA); assay: as above; conditions: 14 days after application, scale 0-100
Method in brief: as §2

[21] = system: redroot pigweed (Amaranthus retroflexus, AMARE); assay: as above; conditions: 14 days after application, scale 0-100
Method in brief: as §2

[22] = system: sicklepod (Cassia obtusifolia, CASOB); assay: as above; conditions: 14 days after application, scale 0-100
Method in brief: as §2

[23] = system: velvetleaf (Abutilon theophrasti, ABUTH); assay: as above; conditions: 14 days after application, scale 0-100
Method in brief: as §2

[24] = system: field corn (Zea mays L., var. Dekalb 535, CORN); assay: Post-emerge greenhouse test, crop damage rating; conditions: 14 days after application, scale 0-100
Method in brief: as §2

[25] = system: upland rice (Oryza sp., var.Tebonnet, RICE); assay: Post-emerge greenhouse test, crop damage rating; conditions: 14 days after application, scale 0-100
Method in brief: as §2

[26] = system: soybean (Glycine max L., var. Pella 86, SOY); assay: Post-emerge greenhouse test, crop damage rating; set-up: key to crop damage rating SOY: 0-100 scale: 0 = no damage, 100 = complete death of all plants; conditions: 14 days after application, scale 0-100
Method in brief: as §2

O=c1n(-c2cc(Oc3cccc(Cl)n3)c(Cl)cc2F)c(=S)n2n1CCCC2 [Compound 8-26]
SORHA phytotoxicity rating ([1]; Rate 500 g al/ha): 0 | ECHCG phytotoxicity rating ([2]; Rate 500 g al/ha): 0 | AMBEL phytotoxicity rating ([3]; Rate 500 g al/ha): 0 | SETVI phytotoxicity rating ([4]; Rate 500 g al/ha): 0 | IPOHE phytotoxicity rating ([5]; Rate 500 g al/ha): 0 | CHEAL phytotoxicity rating ([6]; Rate 500 g al/ha): 0 | DIGSA phytotoxicity rating ([7]; Rate 500 g al/ha): 0 | AMARE phytotoxicity rating ([8]; Rate 500 g al/ha): 0 | CASOB phytotoxicity rating ([9]; Rate 500 g al/ha): 0 | ABUTH phytotoxicity rating ([10]; Rate 500 g al/ha): 0 | CORN crop damage rating ([11]; Rate 500 g al/ha): 0 | RICE crop damage rating ([12]; Rate 500 g al/ha): 0 | SOY crop damage rating ([13]; Rate 500 g al/ha): 0 | phytotoxicity rating AMBEL ([14]; rate 500 g ai/ha): 0 | phytotoxicity rating SORHA ([15]; rate 500 g ai/ha): 0 | phytotoxicity rating ECHCG ([16]; rate 500 g ai/ha): 0 | phytotoxicity rating SETVI ([17]; rate 500 g ai/ha): 0 | phytotoxicity rating IPOHE ([18]; rate 500 g ai/ha): 0 | phytotoxicity rating CHEAL ([19]; rate 500 g ai/ha): 0 | phytotoxicity rating DIGSA ([20]; rate 500 g ai/ha): 0 | phytotoxicity rating AMARE ([21]; rate 500 g ai/ha): 0 | phytotoxicity rating CASOB ([22]; rate 500 g ai/ha): 0 | phytotoxicity rating ABUTH ([23]; rate 500 g ai/ha): 0 | crop damage rating CORN ([24]; rate 500 g ai/ha): 0 | crop damage rating RICE ([25]; rate 500 g ai/ha): 0 | crop damage rating SOY ([26]; rate 500 g ai/ha): 0

O=c1n(-c2cc(Oc3nc(Cl)ccc3C(F)(F)F)c(Cl)cc2F)c(=S)n2n1CCCC2 [Compound 8-27]
SORHA phytotoxicity rating ([1]; Rate 125 g al/ha): 0 | SORHA phytotoxicity rating ([1]; Rate 500 g al/ha): 30 | ECHCG phytotoxicity rating ([2]; Rate 125 g al/ha): 0 | ECHCG phytotoxicity rating ([2]; Rate 500 g al/ha): 0 | AMBEL phytotoxicity rating ([3]; Rate 125 g al/ha): 0 | AMBEL phytotoxicity rating ([3]; Rate 500 g al/ha): 0 | SETVI phytotoxicity rating ([4]; Rate 125 g al/ha): 60 | SETVI phytotoxicity rating ([4]; Rate 500 g al/ha): 100 | IPOHE phytotoxicity rating ([5]; Rate 125 g al/ha): 0 | IPOHE phytotoxicity rating ([5]; Rate 500 g al/ha): 30 | CHEAL phytotoxicity rating ([6]; Rate 125 g al/ha): 80 | CHEAL phytotoxicity rating ([6]; Rate 500 g al/ha): 100 | DIGSA phytotoxicity rating ([7]; Rate 125 g al/ha): 10 | DIGSA phytotoxicity rating ([7]; Rate 500 g al/ha): 50 | AMARE phytotoxicity rating ([8]; Rate 125 g al/ha): 100 | AMARE phytotoxicity rating ([8]; Rate 500 g al/ha): 100 | CASOB phytotoxicity rating ([9]; Rate 125 g al/ha): 0 | CASOB phytotoxicity rating ([9]; Rate 500 g al/ha): 80 | ABUTH phytotoxicity rating ([10]; Rate 125 g al/ha): 50 | ABUTH phytotoxicity rating ([10]; Rate 500 g al/ha): 100 | CORN crop damage rating ([11]; Rate 125 g al/ha): 0 | CORN crop damage rating ([11]; Rate 500 g al/ha): 0 | RICE crop damage rating ([12]; Rate 125 g al/ha): 0 | RICE crop damage rating ([12]; Rate 500 g al/ha): 10 | SOY crop damage rating ([13]; Rate 125 g al/ha): 0 | SOY crop damage rating ([13]; Rate 500 g al/ha): 0 | phytotoxicity rating AMBEL ([14]; rate 63 g ai/ha): 60 | phytotoxicity rating AMBEL ([14]; rate 500 g ai/ha): 85 | phytotoxicity rating SORHA ([15]; rate 63 g ai/ha): 30 | phytotoxicity rating SORHA ([15]; rate 500 g ai/ha): 20 | phytotoxicity rating ECHCG ([16]; rate 63 g ai/ha): 0 | phytotoxicity rating ECHCG ([16]; rate 500 g ai/ha): 10 | phytotoxicity rating SETVI ([17]; rate 63 g ai/ha): 50 | phytotoxicity rating SETVI ([17]; rate 500 g ai/ha): 50 | phytotoxicity rating IPOHE ([18]; rate 63 g ai/ha): 50 | phytotoxicity rating IPOHE ([18]; rate 500 g ai/ha): 80 | phytotoxicity rating CHEAL ([19]; rate 63 g ai/ha): 90 | phytotoxicity rating CHEAL ([19]; rate 500 g ai/ha): 100 | phytotoxicity rating DIGSA ([20]; rate 63 g ai/ha): 10 | phytotoxicity rating DIGSA ([20]; rate 500 g ai/ha): 20 | phytotoxicity rating AMARE ([21]; rate 63 g ai/ha): 90 | phytotoxicity rating AMARE ([21]; rate 500 g ai/ha): 100 | phytotoxicity rating CASOB ([22]; rate 63 g ai/ha): 30 | phytotoxicity rating CASOB ([22]; rate 500 g ai/ha): 100 | phytotoxicity rating ABUTH ([23]; rate 63 g ai/ha): 80 | phytotoxicity rating ABUTH ([23]; rate 500 g ai/ha): 100 | crop damage rating CORN ([24]; rate 63 g ai/ha): 5 | crop damage rating CORN ([24]; rate 500 g ai/ha): 10 | crop damage rating RICE ([25]; rate 63 g ai/ha): 0 | crop damage rating RICE ([25]; rate 500 g ai/ha): 5 | crop damage rating SOY ([26]; rate 63 g ai/ha): 70 | crop damage rating SOY ([26]; rate 500 g ai/ha): 80
